Calls of active or inactive are those of the source. No cut-off for these calls is given here. Bridge positions count the residues as written; N and C are the ends. Peptide text beside a SMILES is read from it. * marks the point of attachment. Bz = O=C(c1ccccc1)*
Tests used:
[1] = target: Nociceptin receptor (Mus musculus) (UniProt P35377); assay: Agonist activity at NOR in mouse Neuro-2a cells assessed as stimulation of ERK phosphorylation at 1 uM after 35 mins post dose by Alphascreen Surefire assay
[2] = Half life in human serum; assay type: ADME, cell-free
[3] = Cytotoxicity in human erythrocytes assessed as induction of hemolysis at 100 uM; assay type: cell-based; conditions: erythrocyte
Nociceptin receptor [4] = target: T1, Nociceptin receptor (Mus musculus, UniProt P35377); assay: Antagonist activity at NOR in mouse Neuro-2a cells assessed as inhibition of nociceptin-induced ERK phosphorylation administered for 15 mins before nociceptin challenge by Alphascreen Surefire assay; assay type: functional, cell-based
[5] = target: Nociceptin receptor (Mus musculus) (UniProt P35377); assay: Antagonist activity at NOR in mouse Neuro-2a cells assessed as inhibition of nociceptin-induced ERK phosphorylation at 100 nM administered for 15 mins before nociceptin challenge by Alphascreen Surefire assay; assay type: functional, cell-based
[6] = target: Nociceptin receptor (Mus musculus) (UniProt P35377); assay: Agonist activity at NOR in mouse Neuro-2a cells assessed as stimulation of ERK phosphorylation after 35 mins post dose by Alphascreen Surefire assay relative to control
Nociceptin receptor [7] = target: T1, Nociceptin receptor; assay: Agonist activity at NOR in mouse Neuro-2a cells assessed as stimulation of ERK phosphorylation after 35 mins post dose by Alphascreen Surefire assay
Nociceptin receptor [8] = target: T1, Nociceptin receptor; assay: Antagonist activity at NOR in mouse Neuro-2a cells assessed as inhibition of nociceptin-induced ERK phosphorylation administered for 15 mins before nociceptin challenge by competitive inhibition assay; assay type: functional, cell-based; conditions: read-out: pA2 (converted)

T1 sequence (P35377 whole entry): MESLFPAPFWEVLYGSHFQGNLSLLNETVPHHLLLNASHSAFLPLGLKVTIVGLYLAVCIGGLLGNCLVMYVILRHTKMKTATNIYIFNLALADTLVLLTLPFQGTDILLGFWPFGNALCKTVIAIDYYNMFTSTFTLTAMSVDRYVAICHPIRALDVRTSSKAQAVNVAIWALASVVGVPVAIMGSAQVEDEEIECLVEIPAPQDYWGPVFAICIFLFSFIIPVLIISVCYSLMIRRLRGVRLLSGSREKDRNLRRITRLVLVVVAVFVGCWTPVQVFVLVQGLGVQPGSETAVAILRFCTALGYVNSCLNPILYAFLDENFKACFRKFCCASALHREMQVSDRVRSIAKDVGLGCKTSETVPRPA
Nociceptin receptor (Mus musculus), sequence (P35377 whole entry): as above

C[C@@H](O)[C@H](NC(=O)[C@H](Cc1ccc(F)cc1)NC(=O)CNC(=O)CNC(=O)CNC(=O)c1ccccc1)C(=O)NCC(=O)N[C@H]1CCCCNC(=O)C[C@@H](C(=O)N[C@@H](CCCNC(=N)N)C(=O)N[C@@H](CCCCN)C(=O)N[C@H]2CCCCNC(=O)C[C@@H](C(N)=O)NC(=O)[C@H](CCC(N)=O)NC(=O)[C@H](CC(N)=O)NC(=O)[C@H](CCCCN)NC2=O)NC(=O)[C@H](CO)NC(=O)[C@H](CCCCN)NC(=O)[C@H](CCCNC(=N)N)NC1=O
Activity [1]: inactive

C[C@@H]1NC(=O)[C@@H](NC(=O)[C@H](CCCCN)NC(=O)[C@H](CCCN=C(N)N)NC(=O)[C@@H]2CC(=O)NCCCC[C@H](NC(=O)CNC(=O)[C@@H](NC(=O)[C@H](Cc3ccccc3)NC(=O)CNC(=O)CNC(=O)[C@@H](N)Cc3ccccc3)[C@@H](C)O)C(=O)N[C@@H](CCCN=C(N)N)C(=O)N[C@@H](CCCCN)C(=O)N[C@@H](CO)C(=O)N2)CCCCNC(=O)C[C@@H](C(N)=O)NC(=O)[C@H](CCC(N)=O)NC(=O)[C@H](CC(N)=O)NC1=O
half-life [2]: > 360 min
Activity [3]: Non-toxic

CC(C)C[C@H](NC(=O)[C@H](CCCCN)NC(=O)[C@H](CCCN=C(N)N)NC(=O)[C@H](C)NC(=O)[C@H](CO)NC(=O)[C@H](CCCCN)NC(=O)[C@H](CCCN=C(N)N)NC(=O)[C@H](C)NC(=O)CNC(=O)[C@@H](NC(=O)[C@H](Cc1ccccc1)NC(=O)CNC(=O)CNC(=O)[C@@H](N)Cc1ccccc1)[C@@H](C)O)C(=O)N[C@@H](C)C(=O)N[C@@H](CC(N)=O)C(=O)N[C@@H](CCC(N)=O)C(=O)O [NOCICEPTIN]
half-life [2]: 60 min
Activity [3]: Non-toxic

CC(C)C[C@@H]1NC(=O)[C@H](CCCCN)NC(=O)[C@H](CCCN=C(N)N)NC(=O)[C@@H](NC(=O)[C@@H]2CC(=O)NCCCC[C@H](NC(=O)[C@@H](NC(=O)[C@H](Cc3ccccc3)NC(=O)CNC(=O)CNC(=O)CNC(=O)c3ccccc3)[C@@H](C)O)C(=O)N[C@@H](C)C(=O)N[C@@H](CCCN=C(N)N)C(=O)N[C@@H](CCCCN)C(=O)N2)CCCCNC(=O)C[C@@H](C(N)=O)NC1=O (Bz-GGGFTKARKDKRKLD-NH2; lactam 6-10, 11-15)
IC50 (Nociceptin receptor [4]; read-out: pIC50 (converted)): > 100 nM

CC(C)C[C@H](NC(=O)[C@H](CCCCN)NC(=O)[C@H](CCCNC(=N)N)NC(=O)[C@H](C)NC(=O)[C@H](CO)NC(=O)[C@H](CCCCN)NC(=O)[C@H](CCCNC(=N)N)NC(=O)[C@H](C)NC(=O)CNC(=O)[C@@H](NC(=O)[C@H](Cc1ccc(F)cc1)NC(=O)CNC(=O)CNC(=O)CNC(=O)c1ccccc1)[C@@H](C)O)C(=O)N[C@@H](CCCCN)C(=O)N[C@@H](CC(N)=O)C(=O)N[C@@H](CCC(N)=O)C(N)=O
Activity [1]: inactive

CC(C)C[C@@H]1NC(=O)[C@H](CCCCN)NC(=O)[C@H](CCCNC(=N)N)NC(=O)[C@@H](NC(=O)[C@@H]2CC(=O)NCCCC[C@H](NC(=O)[C@@H](NC(=O)[C@H](Cc3ccccc3)NC(=O)CNC(=O)CNC(=O)CNC(=O)c3ccccc3)[C@@H](C)O)C(=O)N[C@@H](C)C(=O)N[C@@H](CCCNC(=N)N)C(=O)N[C@@H](CCCCN)C(=O)N2)CCCCNC(=O)C[C@@H](C(N)=O)NC1=O (Bz-GGGFTKARKDKRKLD-NH2; lactam 6-10, 11-15)
inhibition [5]: inactive

C[C@@H](O)[C@H](NC(=O)[C@H](Cc1ccccc1)NC(=O)CNC(=O)CNC(=O)[C@@H](N)Cc1ccccc1)C(=O)NCC(=O)N[C@H]1CCCCNC(=O)C[C@@H](C(N)=O)NC(=O)[C@H](CCCCN)NC(=O)[C@H](CCCNC(=N)N)NC(=O)[C@@H]2CC(=O)NCCCC[C@@H](CC(=O)[C@H](CCCCN)NC(=O)[C@H](CCCNC(=N)N)NC1=O)C(=O)N2
Emax [6]: 92%

CC(=O)N[C@H](C(=O)N[C@H]1CCCCNC(=O)C[C@@H](C(=O)N[C@H]2CCCCNC(=O)C[C@@H](C(N)=O)NC(=O)[C@H](CC(C)C)NC(=O)[C@H](CCCCN)NC(=O)[C@H](CCCNC(=N)N)NC2=O)NC(=O)[C@H](CCCCN)NC(=O)[C@H](CCCNC(=N)N)NC(=O)[C@H](C)NC1=O)[C@@H](C)O (Ac-TKARKDKRKLD-NH2; lactam 2-6, 7-11)
inhibition [5]: inactive

CC(=O)N[C@H](C(=O)N[C@H]1CCCCNC(=O)C[C@@H](C(=O)N[C@H]2CCCCNC(=O)C[C@@H](C(N)=O)NC(=O)[C@H](CC(C)C)NC(=O)[C@H](CCCCN)NC(=O)[C@H](CCCN=C(N)N)NC2=O)NC(=O)[C@H](CCCCN)NC(=O)[C@H](CCCN=C(N)N)NC(=O)[C@H](C)NC1=O)[C@@H](C)O (Ac-TKARKDKRKLD-NH2; lactam 2-6, 7-11)
IC50 (Nociceptin receptor [4]; read-out: pIC50 (converted)): > 100 nM

C[C@@H](O)[C@H](NC(=O)[C@H](Cc1ccc(F)cc1)NC(=O)CNC(=O)CNC(=O)[C@@H](N)Cc1ccccc1)C(=O)NCC(=O)N[C@H]1CCCCNC(=O)C[C@@H](C(=O)N[C@@H](CCCN=C(N)N)C(=O)N[C@@H](CCCCN)C(=O)N[C@H]2CCCCNC(=O)C[C@@H](C(N)=O)NC(=O)[C@H](CCC(N)=O)NC(=O)[C@H](CC(N)=O)NC(=O)[C@H](CCCCN)NC2=O)NC(=O)[C@H](CO)NC(=O)[C@H](CCCCN)NC(=O)[C@H](CCCN=C(N)N)NC1=O
EC50 (Nociceptin receptor [7]): 0.04 nM
EC50 (Nociceptin receptor [7]; neuro-2a): 0.04 nM

C[C@@H](O)[C@H](NC(=O)[C@H](Cc1ccccc1)NC(=O)CNC(=O)CNC(=O)CNC(=O)c1ccccc1)C(=O)NCC(=O)N[C@H]1CCCCNC(=O)C[C@@H](C(=O)N[C@@H](CCCN=C(N)N)C(=O)N[C@@H](CCCCN)C(=O)N[C@H]2CCCCNC(=O)C[C@@H](C(N)=O)NC(=O)[C@H](CCC(N)=O)NC(=O)[C@H](CC(N)=O)NC(=O)[C@H](CCCCN)NC2=O)NC(=O)[C@H](CO)NC(=O)[C@H](CCCCN)NC(=O)[C@H](CCCN=C(N)N)NC1=O (Bz-GGGFTGKRKSDRKKKNQD-NH2; lactam 7-11, 14-18)
IC50 (Nociceptin receptor [4]; read-out: IC50): 12 nM

C[C@@H](O)[C@H](NC(=O)[C@H](Cc1ccccc1)NC(=O)CNC(=O)CNC(=O)[C@@H](N)Cc1ccccc1)C(=O)NCC(=O)N[C@H]1CCCCNC(=O)C[C@@H](C(=O)N[C@@H](CCCN=C(N)N)C(=O)N[C@@H](CCCCN)C(N)=O)NC(=O)[C@H](CO)NC(=O)[C@H](CCCCN)NC(=O)[C@H](CCCN=C(N)N)NC1=O (H-FGGFTGKRKSDRK-NH2; lactam 7-11)
EC50 (Nociceptin receptor [7]): 30 nM

CC(C)C[C@H](NC(=O)[C@H](CCCCN)NC(=O)[C@H](CCCN=C(N)N)NC(=O)[C@H](C)NC(=O)[C@H](CO)NC(=O)[C@H](CCCCN)NC(=O)[C@H](CCCN=C(N)N)NC(=O)[C@H](C)NC(=O)CNC(=O)[C@@H](NC(=O)[C@H](Cc1ccc(F)cc1)NC(=O)CNC(=O)CNC(=O)[C@@H](N)Cc1ccccc1)[C@@H](C)O)C(=O)N[C@@H](CCCCN)C(=O)N[C@@H](CC(N)=O)C(=O)N[C@@H](CCC(N)=O)C(N)=O
EC50 (Nociceptin receptor [7]): 0.36 nM

CC(C)C[C@H](NC(=O)[C@H](CCCCN)NC(=O)[C@H](CCCN=C(N)N)NC(=O)[C@H](C)NC(=O)[C@H](CO)NC(=O)[C@H](CCCCN)NC(=O)[C@H](CCCN=C(N)N)NC(=O)[C@H](C)NC(=O)CNC(=O)[C@@H](NC(=O)[C@H](Cc1ccc(F)cc1)NC(=O)CNC(=O)CNC(=O)CNCc1ccccc1)[C@@H](C)O)C(=O)N[C@@H](CCCCN)C(=O)N[C@@H](CC(N)=O)C(=O)N[C@@H](CCC(N)=O)C(N)=O
pIC50 (Nociceptin receptor [4]; neuro-2a): 7.49

C[C@@H](O)[C@H](NC(=O)[C@H](Cc1ccccc1)NC(=O)CNC(=O)CNC(=O)[C@@H](N)Cc1ccccc1)C(=O)NCC(=O)N[C@H]1CCCCNC(=O)C[C@@H](C(N)=O)NC(=O)[C@H](CCCCN)NC(=O)[C@H](CCCN=C(N)N)NC(=O)[C@@H]2CC(=O)NCCCC[C@@H](CC(=O)[C@H](CCCCN)NC(=O)[C@H](CCCN=C(N)N)NC1=O)C(=O)N2
EC50 (Nociceptin receptor [7]): 14 nM

C[C@@H](O)[C@H](NC(=O)[C@H](Cc1ccccc1)NC(=O)CNC(=O)CNC(=O)[C@@H](N)Cc1ccccc1)C(=O)NCC(=O)N[C@H]1CCCCNC(=O)C[C@@H](C(=O)N[C@@H](CCCNC(=N)N)C(=O)N[C@@H](CCCCN)C(N)=O)NC(=O)[C@H](CO)NC(=O)[C@H](CCCCN)NC(=O)[C@H](CCCNC(=N)N)NC1=O (H-FGGFTGKRKSDRK-NH2; lactam 7-11)
Emax [6]: 80%

C[C@@H](O)[C@H](NC(=O)[C@H](Cc1ccc(F)cc1)NC(=O)CNC(=O)CNC(=O)CNC(=O)c1ccccc1)C(=O)NCC(=O)N[C@H]1CCCCNC(=O)C[C@@H](C(=O)N[C@@H](CCCN=C(N)N)C(=O)N[C@@H](CCCCN)C(=O)N[C@H]2CCCCNC(=O)C[C@@H](C(N)=O)NC(=O)[C@H](CCC(N)=O)NC(=O)[C@H](CC(N)=O)NC(=O)[C@H](CCCCN)NC2=O)NC(=O)[C@H](CO)NC(=O)[C@H](CCCCN)NC(=O)[C@H](CCCN=C(N)N)NC1=O
Kb (Nociceptin receptor [8]): 1.95 nM
IC50 (Nociceptin receptor [4]; read-out: IC50): 7.5 nM

C[C@H](NC(=O)CNC(=O)[C@@H](NC(=O)[C@H](Cc1ccccc1)NC(=O)CNC(=O)CNC(=O)[C@@H](N)Cc1ccccc1)[C@@H](C)O)C(=O)N[C@@H](CCCNC(=N)N)C(=O)N[C@@H](CCCCN)C(=O)N[C@@H](CO)C(=O)N[C@@H](C)C(=O)N[C@@H](CCCNC(=N)N)C(=O)N[C@@H](CCCCN)C(N)=O
Emax [6]: 90%
